In patent publication US8741897B2, “Glucocorticoid mimetics, methods of making them, pharmaceutical compositions and uses thereof” (Boehringer Ingelheim Pharmaceuticals Inc., priority 2003, dated 2014):

Legend:
[1] = system: Human osteosarcoma MG-63 cells; assay: Inhibition of osteocalcin production from osteoblast cell line MG-63; format: cell-based; conditions: Vitamin D 10 nM, 48 hours
Protocol: 7. Inhibition of Osteocalcin Production from Osteoblast Cell Line MG-63
The next day, wells are replaced with fresh media. Cells are treated with Vitamin D (Sigma, Cat. No. D1530) to a final concentration of 10 nM, and with the test compounds in concentrations of 10^−6 M to 10^−9 M, in a total volume of 200 μL per well. Samples are done in duplicates. […] Positive control wells receive Vitamin D only, without compounds, and represent maximum (100%) amount of osteocalcin production. Plates are incubated at 37° C. incubator for 48 hours and supernatants are harvested at the end of incubation. Amounts of osteocalcin in the supernatants are determined by the Glype osteocalcin ELISA kit (Zymed, Cat. No. 99-0054) according to manufacture's protocol. Inhibition of osteocalcin by test compounds is expressed in percentage relative to positive controls. IC50 values of the test compounds are derived by non-lineal curve fitting.

[2] = target: T1, human glucocorticoid receptor (GR) complex (Homo sapiens, UniProt P04150); assay: Glucocorticoid receptor competitive binding assay (fluorescence polarization, TAMRA-labeled dexamethasone probe); conditions: compounds of Formula (IA)
T1 construct: made in house; host or cells: insect expression system (baculovirus lysate)
T1 sequence (P04150 1-777): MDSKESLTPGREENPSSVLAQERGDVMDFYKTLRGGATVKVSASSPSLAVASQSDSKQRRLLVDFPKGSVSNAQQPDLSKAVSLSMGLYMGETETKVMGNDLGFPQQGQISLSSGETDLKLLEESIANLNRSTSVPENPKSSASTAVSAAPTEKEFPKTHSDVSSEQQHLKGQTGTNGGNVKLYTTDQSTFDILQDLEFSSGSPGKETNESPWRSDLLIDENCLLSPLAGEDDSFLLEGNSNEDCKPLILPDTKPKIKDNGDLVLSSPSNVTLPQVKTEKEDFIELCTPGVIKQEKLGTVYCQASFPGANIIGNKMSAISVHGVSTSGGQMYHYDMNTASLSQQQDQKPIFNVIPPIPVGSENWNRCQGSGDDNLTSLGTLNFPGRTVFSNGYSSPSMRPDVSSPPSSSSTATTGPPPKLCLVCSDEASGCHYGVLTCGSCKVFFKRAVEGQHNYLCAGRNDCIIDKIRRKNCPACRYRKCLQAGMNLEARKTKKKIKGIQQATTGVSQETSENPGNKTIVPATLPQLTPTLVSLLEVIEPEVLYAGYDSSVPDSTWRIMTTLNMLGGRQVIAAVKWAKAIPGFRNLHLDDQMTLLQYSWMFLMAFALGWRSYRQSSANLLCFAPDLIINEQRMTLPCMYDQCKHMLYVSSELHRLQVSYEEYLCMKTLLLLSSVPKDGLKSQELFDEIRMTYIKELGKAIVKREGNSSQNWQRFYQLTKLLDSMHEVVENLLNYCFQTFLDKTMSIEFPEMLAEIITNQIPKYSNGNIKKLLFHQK
Outline: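 Fluorescence-polarization competition against 15 nM TAMRA-dexamethasone (stock added to the mix) for human GR complex from baculovirus lysate diluted 1:170. Buffer: 10 mM TES, 50 mM KCl, 20 mM Na2MoO4, 1.5 mM EDTA, 0.04% CHAPS, 10% glycerol, 1 mM DTT, pH 7.4. IC50 from 4-parameter logistic fit.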

[3] = system: glucocorticoid receptor function; assay: one or more of the above assays (GR binding and glucocorticoid receptor cell assays: aromatase, IL-6, TAT, MMTV-Luc, IL-8, ICAM-Luc); format: cell-based; conditions: assay not specified per compound

In the case of `Cc1ccc(F)cc1C(C)(C)CC(O)(Cc1cc2cc(N3CCCCC3)ncc2[nH]1)C(F)(F)F` (stereo not shown) [1,1,1-Trifluoro-4-(5-fluoro-2-methylphenyl)-4-methyl-2-(5-piperidin-1-yl-1H-pyrrolo[2,3-c]pyridin-2-ylmethyl)pentan-2-ol], the “inhibit the vitamin D stimulated production of osteocalcin” value [1] was “inhibit”.
In the case of `CC(C)(CC(O)(Cc1cc2cc(C(=O)N3CCCC3)ccc2[nH]1)C(F)(F)F)c1cc(Br)cc2c1OCC2` (stereo not shown) [{2-[4-(5-Bromo-2,3-dihydrobenzofuran-7-yl)-2-hydroxy-4-methyl-2-trifluoromethylpentyl]-1H-indol-5-yl}pyrrolidin-1-ylmethanone], the “inhibit the vitamin D stimulated production of osteocalcin” value [1] was “inhibit”, the “activity in the GR binding assay” value [2] was “potent activity” and the “activity as agonists of the glucocorticoid receptor function in one or more of the above assays” value (from here on “activity as agonists”) [3] was “potent agonists”.
`CC(C)(CC(O)(Cc1cc2cc(-c3cccnc3)ccc2[nH]1)C(F)(F)F)c1cc(F)cc2c1OCC2` (stereo not shown) was tested, and the “inhibit the vitamin D stimulated production of osteocalcin” value [1] was “inhibit”.
With `Cc1ccc(F)cc1C(C)(C)CC(O)(Cc1cc2cc(-c3ccccc3)ncc2[nH]1)C(F)(F)F` (stereo not shown) [1,1,1-Trifluoro-4-(5-fluoro-2-methylphenyl)-4-methyl-2-(5-phenyl-1H-pyrrolo[2,3-c]pyridin-2-ylmethyl)pentan-2-ol] the “inhibit the vitamin D stimulated production of osteocalcin” value [1] was “inhibit” and the “activity as agonists” value [3] was “potent agonists”.
For `CCN(C)c1cc2cc(CC(O)(CC(C)(C)c3cc(Cl)cc4c3OCC4)C(F)(F)F)[nH]c2cn1` (stereo not shown) [4-(5-Chloro-2,3-dihydrobenzofuran-7-yl)-2-[5-(ethylmethylamino)-1H-pyrrolo[2,3-c]pyridin-2-ylmethyl]-1,1,1-trifluoro-4-methylpentan-2-ol], the “inhibit the vitamin D stimulated production of osteocalcin” value [1] was “inhibit” and the “activity as agonists” value [3] was “potent agonists”.
In the case of `CC(C)(CC(O)(Cc1cc2cc(N3CCOCC3)ncc2[nH]1)C(F)(F)F)c1cccc(Br)c1` (stereo not shown) [4-(3-Bromophenyl)-1,1,1-trifluoro-4-methyl-2-(5-morpholin-4-yl-1H-pyrrolo[2,3-c]pyridin-2-ylmethyl)pentan-2-ol], the “inhibit the vitamin D stimulated production of osteocalcin” value [1] was “inhibit” and the “activity as agonists” value [3] was “potent agonists”.
In the case of `Cc1ccc(F)cc1C(C)(C)CC(O)(Cc1cc2cc(N3CCOCC3)ncc2[nH]1)C(F)(F)F` (stereo not shown) [1,1,1-Trifluoro-4-(5-fluoro-2-methylphenyl)-4-methyl-2-(5-morpholin-4-yl-1H-pyrrolo[2,3-c]pyridin-2-ylmethyl)pentan-2-ol], the “inhibit the vitamin D stimulated production of osteocalcin” value [1] was “inhibit”.
For `COc1ccc(-c2cncnc2)cc1C(C)(C)CC(O)(Cc1cc2cc(N3CCCCC3)ncc2[nH]1)C(F)(F)F` (stereo not shown) [1,1,1-Trifluoro-4-(2-methoxy-5-pyrimidin-5-ylphenyl)-4-methyl-2-(5-piperidin-1-yl-1H-pyrrolo[2,3-c]pyridin-2-ylmethyl)pentan-2-ol], the “inhibit the vitamin D stimulated production of osteocalcin” value [1] was “inhibit” and the “activity as agonists” value [3] was “potent agonists”.
For `COc1ccc(F)cc1C(C)(C)CC(O)(Cc1cc2cc(-c3ccccc3)ncc2[nH]1)C(F)(F)F` (stereo not shown) [1,1,1-Trifluoro-4-(5-fluoro-2-methoxyphenyl)-4-methyl-2-(5-phenyl-1H-pyrrolo[2,3-c]pyridin-2-ylmethyl)pentan-2-ol], the “inhibit the vitamin D stimulated production of osteocalcin” value [1] was “inhibit” and the “activity as agonists” value [3] was “potent agonists”.
`CC(C)(CC(O)(Cc1cc2cc(-c3ccccc3)ncc2[nH]1)C(F)(F)F)c1cc(Cl)cc2c1OCC2` (stereo not shown) [4-(5-Chloro-2,3-dihydrobenzofuran-7-yl)-1,1,1-trifluoro-4-methyl-2-(5-phenyl-1H-pyrrolo[2,3-c]pyridin-2-ylmethyl)pentan-2-ol] was tested, and the “inhibit the vitamin D stimulated production of osteocalcin” value [1] was “inhibit” and the “activity as agonists” value [3] was “potent agonists”.
With `CC(C)(CC(O)(Cc1cc2cc(N3CCCCC3)ncc2[nH]1)C(F)(F)F)c1cc(S(C)(=O)=O)cc2c1OCC2` (stereo not shown) [1,1,1-Trifluoro-4-(5-methanesulfonyl-2,3-dihydrobenzofuran-7-yl)-4-methyl-2-(5-piperidin-1-yl-1H-pyrrolo[2,3-c]pyridin-2-ylmethyl)pentan-2-ol] the “inhibit the vitamin D stimulated production of osteocalcin” value [1] was “inhibit” and the “activity as agonists” value [3] was “potent agonists”.
`CCN(C)c1cc2cc(CC(O)(CC(C)(C)c3cc(F)ccc3C)C(F)(F)F)[nH]c2cn1` (stereo not shown) [2-[5-(Ethylmethylamino)-1H-pyrrolo[2,3-c]pyridin-2-ylmethyl]-1,1,1-trifluoro-4-(5-fluoro-2-methylphenyl)-4-methylpentan-2-ol] was tested, and the “inhibit the vitamin D stimulated production of osteocalcin” value [1] was “inhibit” and the “activity as agonists” value [3] was “potent agonists”.
With `COc1ccc(-c2cccnc2)cc1C(C)(C)CC(O)(Cc1cc2cc(N3CCCCC3)ncc2[nH]1)C(F)(F)F` (stereo not shown) [1,1,1-Trifluoro-4-(2-methoxy-5-pyridin-3-ylphenyl)-4-methyl-2-(5-piperidin-1-yl-1H-pyrrolo[2,3-c]pyridin-2-ylmethyl)pentan-2-ol] the “inhibit the vitamin D stimulated production of osteocalcin” value [1] was “inhibit” and the “activity as agonists” value [3] was “potent agonists”.
For `CC(C)(CC(O)(Cc1cc2cnccc2[nH]1)C(F)(F)F)c1cccc(Cl)c1` (stereo not shown) [4-(3-Chlorophenyl)-1,1,1-trifluoro-4-methyl-2-(1H-pyrrolo[3,2-c]pyridin-2-ylmethyl)pentan-2-ol], the “inhibit the vitamin D stimulated production of osteocalcin” value [1] was “inhibit” and the “activity as agonists” value [3] was “potent agonists”.
With `Cc1c(CC(O)(CC(C)(C)c2cc(-c3cncnc3)cc3c2OCC3)C(F)(F)F)[nH]c2cnccc12` (stereo not shown) [1,1,1-Trifluoro-4-methyl-2-(3-methyl-1H-pyrrolo[2,3-c]pyridin-2-ylmethyl)-4-(5-pyrimidin-5-yl-2,3-dihydrobenzofuran-7-yl)pentan-2-ol] the “inhibit the vitamin D stimulated production of osteocalcin” value [1] was “inhibit” and the “activity as agonists” value [3] was “potent agonists”.
`CN(C)c1cc2cc(CC(O)(CC(C)(C)c3cc(F)ccc3O)C(F)(F)F)[nH]c2cn1` (stereo not shown) [2-[3-(5-Dimethylamino-1H-pyrrolo[2,3-c]pyridin-2-ylmethyl)-4,4,4-trifluoro-3-hydroxy-1,1-dimethylbutyl]-4-fluorophenol] was tested, and the “inhibit the vitamin D stimulated production of osteocalcin” value [1] was “inhibit” and the “activity as agonists” value [3] was “potent agonists”.
For `CC(C)(CC(O)(Cc1cc2cc(O)ncc2[nH]1)C(F)(F)F)c1cc(-c2ccccc2)ccc1O` (stereo not shown) [2-[2-Hydroxy-4-(4-hydroxybiphenyl-3-yl)-4-methyl-2-trifluoromethylpentyl]-1H-pyrrolo[2,3-c]pyridin-5-ol], the “inhibit the vitamin D stimulated production of osteocalcin” value [1] was “inhibit” and the “activity as agonists” value [3] was “potent agonists”.
For `Cc1nccc2[nH]c(CC(O)(CC(C)(C)c3cc(Cl)cc4c3OCC4)C(F)(F)F)cc12` (stereo not shown) [4-(5-Chloro-2,3-dihydrobenzofuran-7-yl)-1,1,1-trifluoro-4-methyl-2-(4-methyl-1H-pyrrolo[3,2-c]pyridin-2-ylmethyl)pentan-2-ol], the “inhibit the vitamin D stimulated production of osteocalcin” value [1] was “inhibit” and the “activity as agonists” value [3] was “potent agonists”.
For `CC(C)(CC(O)(Cc1ccnc2ccccc12)C(F)(F)F)c1cccc(Cl)c1` (stereo not shown) [4-(3-Chlorophenyl)-1,1,1-trifluoro-4-methyl-2-quinolin-4-ylmethylpentan-2-ol], the “activity in the GR binding assay” value [2] was “potent activity” and the “activity as agonists” value [3] was “potent agonists”.
`CC(C)(CC(O)(Cc1cc2cc([N+](=O)[O-])ccc2[nH]1)C(F)(F)F)c1cc(F)ccc1O` (stereo not shown) [4-Fluoro-2-[4,4,4-trifluoro-3-hydroxy-1,1-dimethyl-3-(5-nitro-1H-indol-2-ylmethyl)butyl]phenol] was tested, and the “activity in the GR binding assay” value [2] was “potent activity” and the “activity as agonists” value [3] was “potent agonists”.
For `Cc1ccccc1C(C)(C)CC(O)(Cc1ccnc2ccccc12)C(F)(F)F` (stereo not shown) [1,1,1-Trifluoro-4-methyl-2-quinolin-4-ylmethyl-4-o-tolylpentan-2-ol], the “activity in the GR binding assay” value [2] was “potent activity” and the “activity as agonists” value [3] was “potent agonists”.
